Measurements as given in BigSolDB 2.1.

CO/C=C(/C(=O)OC)c1ccccc1Oc1cc(Oc2ccccc2C#N)ncn1
solubility (mole fraction)
Details	288.15 K	293.15 K	298.15 K	303.15 K	308.15 K	313.15 K	318.15 K	323.15 K	328.15 K
in ethanol	0.000747	0.000923	0.00118	0.00171	0.0022	0.00296	0.00422	0.0056	0.00786
in ethyl acetate	0.0246	0.0283	0.0319	0.0415	0.0473	0.059	0.0756	0.0879	0.108
in isobutanol	0.000441	0.000628	0.00084	0.00129	0.0017	0.00231	0.00324	0.00441	0.00571
in isopropanol	0.000339	0.000476	0.000649	0.00102	0.00134	0.00183	0.0026	0.00358	0.00452
in methanol	0.00135	0.00165	0.00205	0.0027	0.00368	0.00497	0.00683	0.0096	0.0144
in n-butanol	0.000514	0.000733	0.000955	0.00149	0.00185	0.00246	0.0034	0.00476	0.00635
in n-propanol	0.000654	0.000829	0.00108	0.00162	0.00207	0.00277	0.00387	0.00527	0.0072
